In patent US9062041B2 (Bayer Intellectual Property GmbH, priority 2011, dated 2015):

Columns and labels:
Type in all cases: cell-based
[1] = target: EP2 subtype of the human PGE2 receptor (Homo sapiens, UniProt P43116); experiment: cAMP antagonism test on the human EP2 receptor (HTRF cAMP detection); details: hEP2 receptor, read-out: Antagonism hEP2 IC50
Summary of the method: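 Read-out is a competitive HTRF for cAMP: lysate cAMP displaces cAMP-d2 from Eu cryptate-labelled antibody, and antagonism raises the 665/620 nm ratio. Compound (0.8 nM–16.5 μM) added to EP2 cells 20 min at RT before 60 min PGE2 challenge (3× stock 1.5 nM) with IBMX, followed by 20 min lysis.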

[2] = target: EP4 subtype of the human PGE2 receptor (Homo sapiens, UniProt P35408); experiment: cAMP antagonism test on the human EP4 receptor (HTRF cAMP detection); details: selectivity towards hEP4, IC50 measured by cAMP antagonism test
EP4 subtype of the human PGE2 receptor, sequence (P35408 whole entry): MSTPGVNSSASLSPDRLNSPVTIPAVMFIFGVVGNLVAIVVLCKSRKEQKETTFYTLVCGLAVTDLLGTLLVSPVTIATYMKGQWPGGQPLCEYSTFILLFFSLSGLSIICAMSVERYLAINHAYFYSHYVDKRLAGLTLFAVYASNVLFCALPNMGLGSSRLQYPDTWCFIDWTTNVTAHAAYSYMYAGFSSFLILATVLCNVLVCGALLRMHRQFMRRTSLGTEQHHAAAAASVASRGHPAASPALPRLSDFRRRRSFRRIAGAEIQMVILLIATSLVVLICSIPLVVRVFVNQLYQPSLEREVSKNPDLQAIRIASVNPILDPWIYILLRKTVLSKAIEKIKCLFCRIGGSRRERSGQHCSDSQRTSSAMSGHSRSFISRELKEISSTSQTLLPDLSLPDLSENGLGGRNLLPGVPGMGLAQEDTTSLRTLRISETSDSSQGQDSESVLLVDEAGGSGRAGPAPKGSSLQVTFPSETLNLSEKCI
Summary of the method: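 Competitive HTRF cAMP read-out (cAMP-d2 vs Eu-cryptate anti-cAMP antibody, 665/620 nm ratio) on lysed human EP4 cells. Compound (0.8 nM–16.5 μM) applied 20 min at RT before 60 min PGE2 challenge (3× solution 0.3 nM, IBMX present); 20 min lysis precedes reading.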

human PGD receptor = target: T1, human PGD receptor (Homo sapiens, UniProt Q13258); experiment: cAMP antagonism test on the human prostaglandin D receptor (HTRF cAMP detection); details: selectivity towards hDP, IC50 measured by cAMP antagonism test
T1 sequence (Q13258 1-359): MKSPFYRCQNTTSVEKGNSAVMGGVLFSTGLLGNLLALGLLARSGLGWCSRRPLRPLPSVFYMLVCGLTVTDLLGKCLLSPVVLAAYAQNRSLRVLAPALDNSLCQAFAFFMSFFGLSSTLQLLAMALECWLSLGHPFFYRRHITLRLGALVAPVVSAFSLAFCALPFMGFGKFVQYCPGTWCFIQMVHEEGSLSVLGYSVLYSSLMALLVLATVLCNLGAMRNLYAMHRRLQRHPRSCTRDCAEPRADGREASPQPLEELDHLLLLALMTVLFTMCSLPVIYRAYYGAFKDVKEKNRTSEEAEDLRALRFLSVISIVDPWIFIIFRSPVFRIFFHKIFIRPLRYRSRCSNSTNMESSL
Summary of the method: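 HTRF competition read-out (665/620 nm ratio ×10000), where higher FRET means less cAMP, i.e. antagonism. Compounds (0.8 nM–16.5 μM) were preincubated 20 min at RT with cells and cAMP-d2, PGD2 (3× solution, 6 nM) in IBMX-containing PBS added for 30 min at RT, then cells lysed 20 min.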

EP2 subtype of the human PGE2 receptor, sequence (P43116 whole entry): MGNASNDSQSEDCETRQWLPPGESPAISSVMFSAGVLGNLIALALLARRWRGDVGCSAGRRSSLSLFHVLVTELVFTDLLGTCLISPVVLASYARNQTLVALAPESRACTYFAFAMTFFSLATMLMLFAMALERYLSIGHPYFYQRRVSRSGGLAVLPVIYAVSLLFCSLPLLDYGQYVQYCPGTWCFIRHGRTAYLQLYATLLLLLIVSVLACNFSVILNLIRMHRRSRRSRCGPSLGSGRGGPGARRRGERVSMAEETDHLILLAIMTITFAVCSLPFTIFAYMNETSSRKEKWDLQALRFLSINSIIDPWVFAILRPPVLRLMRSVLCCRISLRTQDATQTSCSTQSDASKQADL

Structure (SMILES) | IC50 [1] | Selectivity hEP2/hEP4 [2] | Selectivity hEP2/hDP (human PGD receptor)
COCCNC(=O)c1cc2cn(CC3CN(C(=O)c4cc(F)cc(F)c4)C3)nc2cc1C [Example 179, 2-{[1-(3,5-Difluorobenzoyl)azetidin-3-yl]methyl}-N-(2-methoxyethyl)-6-methyl-2H-indazol-5-carboxamide] | 2610 nM | x (x: 1-10) | x (x: 1-10)
Cc1c(C(=O)NCCOCC2CC2)ccc2nn(CC3CN(C(=O)c4ccc(Cl)cc4)C3)cc12 [Example 149, 2-{[1-(4-chlorobenzoyl)azetidin-3-yl]methyl}-N-[2-(cyclopropylmethoxy)ethyl]-4-methyl-2H-indazol-5-carboxamide] | 29.6 nM | xxx (xxx > 100) | xxx (xxx > 100)
COCCNC(=O)c1ccc2nn(CC3CCN(C(=O)c4ccc(S(F)(F)(F)(F)F)cc4)CC3)cc2c1C [Example 11, N-(2-methoxyethyl)-4-methyl-2-({1-[4-(pentafluoro-λ^6-sulphanyl)benzoyl]piperidin-4-yl}methyl)-2H-indazol-5-carboxamide] | 8.14 nM | xxx (xxx > 100) | xxx (xxx > 100)
COCCNC(=O)c1ccc2nn(CC3CCN(C(=O)c4ccc(Cl)cc4)CC3)cc2c1OC [Example 262, 2-{[1-(4-chlorobenzoyl)piperidin-4-yl]methyl}-4-methoxy-N-(2-methoxyethyl)-2H-indazol-5-carboxamide] | 33.4 nM | xxx (xxx > 100) | xxx (xxx > 100)
Cc1c(C(=O)NCC(C)(C)C)ccc2nn(CC3CCN(C(=O)c4ccc(Cl)cc4)CC3)cc12 [Example 251, 2-{[1-(4-chlorobenzoyl)piperidin-4-yl]methyl}-N-(2,2-dimethylpropyl)-4-methyl-2H-indazol-5-carboxamide] | 3810 nM | x (x: 1-10) | x (x: 1-10)
COC1CN(CCNC(=O)c2ccc3nn(CC4CCN(C(=O)c5ccc(Cl)cc5)CC4)cc3c2C)C1 [Example 238, 2-{[1-(4-chlorobenzoyl)piperidin-4-yl]methyl}-N-[2-(3-methoxyazetidin-1-yl)ethyl]-4-methyl-2H-indazol-5-carboxamide] | 32.4 nM | xxx (xxx > 100) | xxx (xxx > 100)
COCCNC(=O)c1ccc2nn(CC3CCN(C(=O)c4ccc(-c5ccc(F)cc5)c(C)c4)CC3)cc2c1C [Example 390, 2-({1-[(4′-fluoro-2-methylbiphenyl-4-yl)carbonyl]piperidin-4-yl}methyl)-N-(2-methoxyethyl)-4-methyl-2H-indazol-5-carboxamide] | 3.14 nM | xxx (xxx > 100) | xxx (xxx > 100)
COCCNC(=O)c1ccc2nn(CC3CCN(C(=O)c4nc5ccccc5n4C)CC3)cc2c1C [Example 338, N-(2-methoxyethyl)-4-methyl-2-({1-[(1-methyl-1H-benzimidazol-2-yl)carbonyl]-piperidin-4-yl}methyl)-2H-indazol-5-carboxamide] | 28 nM | xxx (xxx > 100) | xxx (xxx > 100)
O=C(NCCOCC1CC1)c1ccc2nn(CC3CCN(C(=O)c4ccc(Cl)cc4)CC3)cc2c1OCC(F)(F)F [Example 235, 2-{[1-(4-chlorobenzoyl)piperidin-4-yl]methyl}-N-[2-(cyclopropylmethoxy)-ethyl]-4-(2,2,2-trifluoroethoxy)-2H-indazol-5-carboxamide] | 16.7 nM | xxx (xxx > 100) | xxx (xxx > 100)
COCCNC(=O)c1ccc2nn(CC3CCN(C(=O)c4ccc(-c5ccc(Cl)cc5C)cc4)CC3)cc2c1C [Example 371, 2-({1-[(4′-chloro-2′-methylbiphenyl-4-yl)carbonyl]piperidin-4-yl}methyl)-N-(2-methoxyethyl)-4-methyl-2H-indazol-5-carboxamide] | 6.11 nM | xxx (xxx > 100) | xxx (xxx > 100)
COCCNC(=O)c1ccc2nn(CC3CN(C(=O)c4ccc(Cl)cc4F)C3)cc2c1C [Example 121, 2-{[1-(4-chloro-2-fluorobenzoyl)azetidin-3-yl]methyl}-N-(2-methoxyethyl)-4-methyl-2H-indazol-5-carboxamide] | 15.5 nM | xxx (xxx > 100) | xxx (xxx > 100)
COCCNC(=O)c1ccc2nn(CC3CCN(C(=O)c4ccc(S(=O)(=O)C(F)(F)F)cc4)CC3)cc2c1C [Example 25, N-(2-methoxyethyl)-4-methyl-2-[(1-{4-[(trifluoromethyl)-sulphonyl]benzoyl}-piperidin-4-yl)-methyl]-2H-indazol-5-carboxamide] | 25.2 nM | xxx (xxx > 100) | xxx (xxx > 100)
COCCNC(=O)c1ccc2nn(CC3CCN(C(=O)c4ccc(S(C)(=O)=O)cc4F)CC3)cc2c1C [Example 6, 2-{[1-(2-fluoro-4-mesylbenzoyl)piperidin-4-yl]methyl}-N-(2-methoxyethyl)-4-methyl-2H-indazol-5-carboxamide] | 313 nM | xx (xx: 10-100) | xx (xx: 10-100)
Cc1c(C(=O)NCC(F)(F)F)ccc2nn(CC3CCN(C(=O)c4ccc(-c5ccc(F)cc5)cc4)CC3)cc12 [Example 286, 2-({1-[(4′-fluorobiphenyl-4-yl)carbonyl]piperidin-4-yl}methyl)-4-methyl-N-(2,2,2-trifluoroethyl)-2H-indazol-5-carboxamide] | 100 nM | xxx (xxx > 100) | xxx (xxx > 100)
COCCNC(=O)c1ccc2nn(CC3CN(C(=O)c4ccc(Oc5ccc(C(F)(F)F)cc5)cc4)C3)cc2c1C [Example 125, N-(2-methoxyethyl)-4-methyl-2-[(1-{4-[4-(trifluoromethyl)phenoxy]benzoyl}azetidin-3-yl)methyl]-2H-indazol-5-carboxamide] | 3.66 nM | xxx (xxx > 100) | xxx (xxx > 100)
COCCNC(=O)c1ccc2nn(CC3CCN(C(=O)c4ccc(Br)cc4F)CC3)cc2c1C [Example 8, 2-{[1-(4-bromo-2-fluorobenzoyl)piperidin-4-yl]methyl}-N-(2-methoxyethyl)-4-methyl-2H-indazol-5-carboxamide] | 9.37 nM | xxx (xxx > 100) | xxx (xxx > 100)
Cc1c(C(=O)NCCCO)ccc2nn(CC3CCN(C(=O)c4ccc(-c5ccc(F)cc5)cc4)CC3)cc12 [Example 409, 2-({1-[(4′-fluorobiphenyl-4-yl)carbonyl]piperidin-4-yl}methyl)-N-(3-hydroxypropyl)-4-methyl-2H-indazol-5-carboxamide] | 31.8 nM | xxx (xxx > 100) | xxx (xxx > 100)
COCCNC(=O)c1ccc2nn(CC3CCN(C(=O)c4ccc(-c5ccccc5C)cc4)CC3)cc2c1C [Example 50, N-(2-methoxyethyl)-4-methyl-2-({1-[(2′-methylbiphenyl-4-yl)carbonyl]piperidin-4-yl}methyl)-2H-indazol-5-carboxamide] | 3.18 nM | xxx (xxx > 100) | xxx (xxx > 100)
Cc1c(C(=O)NCC(F)(F)F)ccc2nn(CC3CN(C(=O)c4ccc(S(F)(F)(F)(F)F)cc4)C3)cc12 [Example 132, 4-methyl-2-({1-[4-(pentafluoro-λ^6-sulphanyl)benzoyl]azetidin-3-yl}methyl)-N-(2,2,2-trifluoroethyl)-2H-indazol-5-carboxamide] | 109 nM | xxx (xxx > 100) | xxx (xxx > 100)
Cc1c(C(=O)NCCOCC2CC2)ccc2nn(CC3CCN(C(=O)c4ccc(Cl)cc4)CC3)cc12 [Example 84, 2-{[1-(4-chlorobenzoyl)piperidin-4-yl]methyl}-N-[2-(cyclopropylmethoxy)ethyl]-4-methyl-2H-indazol-5-carboxamide] | 19.2 nM | xxx (xxx > 100) | xxx (xxx > 100)
COCCNC(=O)c1ccc2nn(CC3CCN(C(=O)c4ccc(-n5cnnc5)cc4)CC3)cc2c1C [Example 52, N-(2-methoxyethyl)-4-methyl-2-((1-[4-(4H-1,2,4-triazol-4-yl)benzoyl]piperidin-4-yl}methyl)-2H-indazol-5-carboxamide] | 830 nM | xx (xx: 10-100) | xx (xx: 10-100)
